# Reference: patent publication US4839375A, “(Aryl or heteroaromatic methyl)-2,2'-bi-1H-imidazoles and their use as anti-hypertensive agents” (Merrell Dow Pharmaceuticals Inc., priority 1987, dated 1989)
# Target: T1, dopamine β-hydroxylase (DBH) (Bos taurus, UniProt P15101)
# T1 sequence (P15101 1-610): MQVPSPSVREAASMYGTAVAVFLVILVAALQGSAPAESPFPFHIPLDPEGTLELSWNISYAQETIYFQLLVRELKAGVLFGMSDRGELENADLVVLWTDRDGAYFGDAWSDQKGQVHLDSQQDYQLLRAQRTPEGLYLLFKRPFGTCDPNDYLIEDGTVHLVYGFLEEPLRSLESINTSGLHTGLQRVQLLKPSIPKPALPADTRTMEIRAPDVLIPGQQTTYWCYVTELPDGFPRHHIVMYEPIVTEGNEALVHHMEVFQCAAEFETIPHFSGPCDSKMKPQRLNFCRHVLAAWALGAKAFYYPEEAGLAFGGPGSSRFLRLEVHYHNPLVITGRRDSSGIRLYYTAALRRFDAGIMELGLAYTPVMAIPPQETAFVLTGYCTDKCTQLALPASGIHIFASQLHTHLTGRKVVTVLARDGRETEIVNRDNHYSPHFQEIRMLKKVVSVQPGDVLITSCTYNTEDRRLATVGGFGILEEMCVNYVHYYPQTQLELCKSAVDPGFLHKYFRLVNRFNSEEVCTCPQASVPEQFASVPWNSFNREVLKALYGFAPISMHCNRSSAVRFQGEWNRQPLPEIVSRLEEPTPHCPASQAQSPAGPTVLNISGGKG
# Test: DBH inhibition, oxygen uptake followed with a polarographic electrode and oxygen monitor
# Format: biochemical
# Details: ascorbate electron donor, tyramine substrate; pH 4.5 to 5.5, preferably pH 5.0; 20° C. to 40° C., preferably 37° C.; read-out: DBH inhibitory activity, IC50 (concentration at which the reaction is inhibited by 50%)
# Procedure: The DBH inhibitory properties of the compounds of this invention can readily be determined by standard and well-known procedures. For example, inhibition of DBH was determined by a procedure wherein enzymatic activity was ascertained in aqueous solution in the presence of molecular oxygen, an electron donor such as ascorbate, a substrate such as tyramine, an inhibitor, and the necessary cofactors for the enzyme at a pH of 4.5 to 5.5, preferably pH 5.0, and at a temperature of 20° C. to 40° C., preferably 37° C. The inhibitor was assayed over a range of concentrations. Each reaction was followed by measuring oxygen uptake as an indication of enzyme activity using a polarographic electrode and an oxygen monitor, following the method of S. May, et al., J. Biol. Chem., 256, 2258 (1981).
row,IC50 [µM],Compound
1,65.5,"c1csc(Cn2ccnc2-c2ncc[nH]2)c1 [1-(2-Thienylmethyl)-2,2'-bi-1H-imidazole]"
2,29,"c1c[nH]c(-c2nccn2Cc2ccsc2)n1 [1-(3-thienylmethyl)-2,2'-bi-1H-imidazole]"
3,8.8,"c1c[nH]c(-c2nc(Cc3ccsc3)c[nH]2)n1 [4-(3-thienylmethyl)-2,2'-bi-1H-imidazole]"
